Assay results reported in EP3375430A1, “FRAGRANCE COMPOSITIONS” (Takasago International Corporation, priority 2017, dated 2018).

Key:
[1] = Amount of fragrance ingredients retained on paper blotter after evaporation (ethanol extraction, GC-MS); format: physicochemical
Summary of the method: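 100 µL of fragrance formulation applied to paper blotters kept at 32°C open to air; at each time three blotters extracted 1 h in ethanol with methyl decanoate internal standard and analysed by GC-MS (HP-5MS, 50–280°C). Amounts averaged over triplicates and expressed as percent of time-zero level.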

[2] = Headspace concentration of fragrance ingredients over blotter (thermal desorption GC-MS); format: physicochemical; details: fragrance TAK;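 for headspace concentration in composition C1 compared to control EdT1: C1 is an invention composition and EdT1 a conventional EdT of fragrance TAK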
Summary of the method: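 Fragrance (100µL) applied to a 10 cm perfumers' blotter held on a 32°C hot plate, equilibrated 5 min; headspace drawn through Tenax TA tubes at 17mL/min until 280mL collected, repeated at later sampling times. Tubes thermally desorbed splitless onto HP-5MS column, GC-MS detection, mass range 35 to 350.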

Q: With `C=CC(C)(CCC=C(C)C)OC(C)=O` (stereo not drawn) [Linalyl acetate] as the molecule, how does the “amount of fragrance ingredient retained on blotter (percentage of the initial amount)” value (shortened to “amount … (percentage of the initial amount)”) ([1]; Table 3, fragrance TAK in C1, 15 min, 32°C) read?
A: Its value is 79%.

Q: And the “amount … (percentage of the initial amount)” value ([1]; Table 3, fragrance TAK in C1, 60 min, 32°C)?
A: Its value is 62%.

Q: What about the “amount … (percentage of the initial amount)” value ([1]; Table 3, fragrance TAK in C1, 120 min, 32°C) of the same molecule?
A: The value was 39%.

Q: And the “amount … (percentage of the initial amount)” value ([1]; Table 3, fragrance TAK in C1, 240 min, 32°C)?
A: The value was 19%.

Q: What about the “amount … (percentage of the initial amount)” value ([1]; Table 3, fragrance TAK in C1, 480 min, 32°C) of the same molecule?
A: The value was 7%.

Q: And the “amount … (percentage of the initial amount)” value ([1]; Table 3, fragrance TAK in EdT1, 15 min, 32°C)?
A: Its value is 70%.

Q: What about the “amount … (percentage of the initial amount)” value ([1]; Table 3, fragrance TAK in EdT1, 60 min, 32°C) of the same molecule?
A: Its value is 27%.

Q: And the “amount … (percentage of the initial amount)” value ([1]; Table 3, fragrance TAK in EdT1, 120 min, 32°C)?
A: The value was 6%.

Q: And the “amount … (percentage of the initial amount)” value ([1]; Table 3, fragrance TAK in EdT1, 240 min, 32°C)?
A: Its value is 2%.

Q: And the “amount … (percentage of the initial amount)” value ([1]; Table 3, fragrance TAK in EdT1, 480 min, 32°C)?
A: Its value is less than 1%.

Q: What about the “amount … (percentage of the initial amount)” value ([1]; Table 3, fragrance TAK in EdT1 or C1, T0, set at 100% (normalisation)) of the same molecule?
A: The value was 100%.

Q: And the “amount … (percentage of the initial amount)” value ([1]; Table 4, fragrance TAK in C2, 15 min, 32°C)?
A: The value was 92%.

Q: And the “amount … (percentage of the initial amount)” value ([1]; Table 4, fragrance TAK in C2, 480 min, 32°C)?
A: The value was 9%.

Q: And the “amount … (percentage of the initial amount)” value ([1]; Table 4, fragrance TAK in EdT1, 15 min, 32°C)?
A: The value was 72%.

Q: And the “amount … (percentage of the initial amount)” value ([1]; Table 4, fragrance TAK in EdT1, 480 min, 32°C)?
A: The value was 2%.

Q: What about the “amount … (percentage of the initial amount)” value ([1]; Table 4, fragrance TAK in EdT1 or C2, T0, set at 100% (normalisation)) of the same molecule?
A: Its value is 100%.

Q: What about the “amount … (percentage of the initial amount)” value ([1]; Table 5, fragrance TAK in C3, 15 min, 32°C) of the same molecule?
A: Its value is 83%.

Q: What about the “amount … (percentage of the initial amount)” value ([1]; Table 5, fragrance TAK in C3, 60 min, 32°C) of the same molecule?
A: Its value is 62%.

Q: What about the “amount … (percentage of the initial amount)” value ([1]; Table 5, fragrance TAK in C3, 120 min, 32°C) of the same molecule?
A: The value was 41%.

Q: And the “amount … (percentage of the initial amount)” value ([1]; Table 5, fragrance TAK in C3, 240 min, 32°C)?
A: Its value is 24%.

Q: And the “amount … (percentage of the initial amount)” value ([1]; Table 5, fragrance TAK in C3, 480 min, 32°C)?
A: Its value is 8%.

Q: What about the “amount … (percentage of the initial amount)” value ([1]; Table 5, fragrance TAK in C3, 1440 min, 32°C) of the same molecule?
A: Its value is 3%.

Q: What about the “amount … (percentage of the initial amount)” value ([1]; Table 5, fragrance TAK in EdT1, 15 min, 32°C) of the same molecule?
A: Its value is 70%.

Q: And the “amount … (percentage of the initial amount)” value ([1]; Table 5, fragrance TAK in EdT1, 60 min, 32°C)?
A: The value was 26%.

Q: And the “amount … (percentage of the initial amount)” value ([1]; Table 5, fragrance TAK in EdT1, 120 min, 32°C)?
A: Its value is 6%.

Q: And the “amount … (percentage of the initial amount)” value ([1]; Table 5, fragrance TAK in EdT1, 240 min, 32°C)?
A: Its value is 2%.

Q: And the “amount … (percentage of the initial amount)” value ([1]; Table 5, fragrance TAK in EdT1, 480 min, 32°C)?
A: Its value is less than 1%.

Q: What about the “amount … (percentage of the initial amount)” value ([1]; Table 5, fragrance TAK in EdT1, 1440 min, 32°C) of the same molecule?
A: The value was less than 1%.

Q: What about the “amount … (percentage of the initial amount)” value ([1]; Table 5, fragrance TAK in EdT1 or C3, T0, set at 100% (normalisation)) of the same molecule?
A: Its value is 100%.

Q: And the “amount … (percentage of the initial amount)” value ([1]; Table 6, fragrance TAK in C4, 15 min, 32°C)?
A: The value was 82%.

Q: What about the “amount … (percentage of the initial amount)” value ([1]; Table 6, fragrance TAK in C4, 60 min, 32°C) of the same molecule?
A: The value was 62%.

Q: What about the “amount … (percentage of the initial amount)” value ([1]; Table 6, fragrance TAK in C4, 120 min, 32°C) of the same molecule?
A: Its value is 34%.

Q: What about the “amount … (percentage of the initial amount)” value ([1]; Table 6, fragrance TAK in C4, 240 min, 32°C) of the same molecule?
A: Its value is 18%.

Q: And the “amount … (percentage of the initial amount)” value ([1]; Table 6, fragrance TAK in C4, 480 min, 32°C)?
A: Its value is 10%.

Q: And the “amount … (percentage of the initial amount)” value ([1]; Table 6, fragrance TAK in EdT1, 15 min, 32°C)?
A: The value was 70%.

Q: And the “amount … (percentage of the initial amount)” value ([1]; Table 6, fragrance TAK in EdT1, 60 min, 32°C)?
A: The value was 27%.

Q: What about the “amount … (percentage of the initial amount)” value ([1]; Table 6, fragrance TAK in EdT1, 120 min, 32°C) of the same molecule?
A: Its value is 6%.

Q: What about the “amount … (percentage of the initial amount)” value ([1]; Table 6, fragrance TAK in EdT1, 240 min, 32°C) of the same molecule?
A: The value was 2%.

Q: What about the “amount … (percentage of the initial amount)” value ([1]; Table 6, fragrance TAK in EdT1, 480 min, 32°C) of the same molecule?
A: Its value is less than 1%.

Q: What about the “amount … (percentage of the initial amount)” value ([1]; Table 6, fragrance TAK in EdT1 or C4, T0, set at 100% (normalisation)) of the same molecule?
A: Its value is 100%.

Q: What about the “headspace concentration in composition C1 compared to control EdT1” value ([2]; T0 + 4h, Figure 3) of the same molecule?
A: The value was “significantly greater”.

Q: What about the “headspace concentration in composition C14 compared to control EdT1” value ([2]; T0+4h and T0+8h, Figures 17 and 18) of the same molecule?
A: The value was “significantly greater”.

Q: And the “headspace concentration in composition C15 compared to control EdT1” value ([2]; T0+4h and T0+8h, Figures 20 and 21, difference significant for linalool, linalyl acetate and Verdox™)?
A: The value was “greater”.

Q: What about the “headspace concentration in composition C1 compared to control EdT1” value ([2]; T0 + 8h, Figure 4) of the same molecule?
A: Its value is “much greater”.

Q: And the “headspace concentration in composition C1 compared to control EdT1” value ([2]; after 1 hour, Figure 2)?
A: The value was “greater”.
